Reference: PMC5890689 (RSC Advances, 2018)
“Also recorded” adds a separate entry of the source. Read-outs that look alike come from different tables or passages of the source.

Columns and labels:
[1] = tested on: KB (nasopharyngeal carcinoma); assay: SRB assay, KB; settings: for GI50: Homo sapiens, 72 h, read-out: GI50 KB
A549 (lung cancer) [2] = assay: SRB assay, A549; settings: Homo sapiens, A549, 72 h, read-out: GI50 A549
[3] = tested on: MDA-MB-231 (human breast carcinoma cell line); assay: SRB assay, MDA-MB-231; settings: MDA-MB-231, 72 h, read-out: GI50 MDA-MB-231
[4] = tested on: MCF-7 (Michigan Cancer Foundation-7); assay: SRB assay, MCF-7; settings: Homo sapiens, MCF7, 72 h, read-out: GI50 MCF-7
CDK9/cyclin T1 = CDK9/cyclin T1 (Homo sapiens, UniProt P50750); assay: CDK9/cyclin T1 kinase assay; type: biochemical
CDK2/cyclin A = CDK2/cyclin A (Homo sapiens, UniProt P24941); assay: CDK2/cyclin A kinase assay; type: biochemical
MDA-MB-231 cells = assay: Cell cycle analysis by flow cytometry; type: cell-based, human; settings: 24 h, five-fold GI50 (2a 6.0 μM, 2d 8.0 μM, 3b 10.5 μM)
[5] = tested on: KB-vin (vincristine-resistant KB subline); assay: SRB assay, KB-vin; settings: 3 days, mean ± SD of three
[6] = tested on: KB-vin (vincristine-resistant KB subline); settings: SRB assay; cited from earlier work
A549 (lung cancer) [7] = settings: read-out: GI50 A549; SRB assay; cited from earlier work
[8] = tested on: KB (nasopharyngeal carcinoma); settings: SRB assay; cited from earlier work

Sequence of CDK9/cyclin T1 (P50750 whole entry): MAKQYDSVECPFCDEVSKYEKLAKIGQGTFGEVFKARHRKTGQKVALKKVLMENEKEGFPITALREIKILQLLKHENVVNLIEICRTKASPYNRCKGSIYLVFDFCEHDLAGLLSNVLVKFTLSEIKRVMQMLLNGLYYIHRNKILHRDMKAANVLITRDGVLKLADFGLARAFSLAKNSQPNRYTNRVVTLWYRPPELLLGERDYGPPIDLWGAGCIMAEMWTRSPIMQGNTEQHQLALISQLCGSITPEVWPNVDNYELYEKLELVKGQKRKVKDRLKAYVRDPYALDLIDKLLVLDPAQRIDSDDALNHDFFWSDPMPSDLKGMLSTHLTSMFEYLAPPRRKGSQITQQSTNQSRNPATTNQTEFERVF
Sequence of CDK9/cyclin T1 (O60563 whole entry partner): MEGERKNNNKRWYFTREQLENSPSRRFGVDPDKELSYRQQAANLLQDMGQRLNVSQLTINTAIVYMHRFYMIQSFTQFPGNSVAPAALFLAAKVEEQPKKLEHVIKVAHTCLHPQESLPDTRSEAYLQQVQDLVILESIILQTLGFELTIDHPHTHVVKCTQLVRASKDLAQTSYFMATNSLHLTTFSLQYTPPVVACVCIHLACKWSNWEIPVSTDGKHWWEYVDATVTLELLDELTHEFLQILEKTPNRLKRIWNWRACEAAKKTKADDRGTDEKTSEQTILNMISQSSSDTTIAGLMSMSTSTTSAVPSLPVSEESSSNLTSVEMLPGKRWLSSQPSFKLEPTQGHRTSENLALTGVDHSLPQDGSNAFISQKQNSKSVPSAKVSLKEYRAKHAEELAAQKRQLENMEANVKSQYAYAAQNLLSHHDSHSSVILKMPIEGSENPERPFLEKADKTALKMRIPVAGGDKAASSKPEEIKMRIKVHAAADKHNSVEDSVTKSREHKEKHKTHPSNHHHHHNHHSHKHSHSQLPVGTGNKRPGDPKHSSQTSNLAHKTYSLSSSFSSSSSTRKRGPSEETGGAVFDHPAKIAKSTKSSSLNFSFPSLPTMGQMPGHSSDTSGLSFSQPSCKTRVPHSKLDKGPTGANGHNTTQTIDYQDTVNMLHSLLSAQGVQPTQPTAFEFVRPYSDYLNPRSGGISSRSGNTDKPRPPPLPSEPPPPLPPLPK

Structure (SMILES) | GI50 [1] [nM] | GI50 (A549 (lung cancer) [2]) [nM] | GI50 [3] [nM] | GI50 [4] [nM] | IC50 (CDK9/cyclin T1) [nM] | IC50 (CDK2/cyclin A) [nM] | Effect on cell cycle progression (MDA-MB-231 cells) | GI50 KB ([1]; SRB assay, 3 days, mean ± SD of three) [nM] | GI50 KB-vin [5] [nM] | GI50 KB-vin [6] [nM] | GI50 (A549 (lung cancer) [7]) [nM] | GI50 KB [8] [nM] | subtype selectivity for CDK9 over CDK2 (CDK9/cyclin T1; ratio of IC50 CDK2/cyclin A to CDK9/cyclin T1) [fold]
CN(C)CC(=O)Nc1ccc(Nc2ncc(F)c(Nc3c(F)cccc3F)n2)cc1 [3k, N-(4-((4-((2,6-Difluorophenyl)amino)-5-fluoropyrimidin-2-yl)amino)phenyl)-2-(dimethylamino)acetamide] | 3800 ± 340 | 3040 ± 180 | 6010 ± 80 | 4480 ± 390 | – | – | – | – | – | – | – | – | –
CN1CCC(C(=O)Nc2cccc(Nc3ncc(F)c(Nc4c(F)cccc4F)n3)c2)CC1 [3d, N-(3-((4-((2,6-Difluorophenyl)amino)-5-fluoropyrimidin-2-yl)amino)phenyl)-1-methylpiperidine-4-carboxamide] | 2600 ± 450 | 1090 ± 30 | 3300 ± 230 | 6160 ± 140 | 660 ± 20 | 130 ± 20 | – | – | – | – | – | – | –
CN(C)CC(=O)Nc1cccc(Nc2ncc(F)c(NN3CCN(C)CC3)n2)c1 [2h, 2-(Dimethylamino)-N-(3-((5-fluoro-4-((4-methylpiperazin-1-yl)amino)pyrimidin-2-yl)amino)phenyl)acetamide] | > 10000 | > 10000 | > 10000 | > 10000 | 2200 ± 320 | 5600 ± 530 | – | – | – | – | – | – | –
COc1ccc(Nc2ncc(F)c(Nc3c(F)cccc3F)n2)cc1NC(=O)CN(C)C [3i, N-(5-((4-((2,6-Difluorophenyl)amino)-5-fluoropyrimidin-2-yl)amino)-2-methoxyphenyl)-2-(dimethylamino)acetamide] | 2870 ± 240 | 700 ± 2 | 4050 ± 140 | 1880 ± 120 | – | – | – | – | – | – | – | – | –
CN(C)CC(=O)Nc1cccc(Nc2ncc(F)c(Nc3ccc(N(C)C)cc3)n2)c1 [2d, 2-(Dimethylamino)-N-(3-((4-((4-(dimethylamino)phenyl)amino)-5-fluoropyrimidin-2-yl)amino)phenyl)acetamide] | 3080 ± 160 | 1890 ± 190 | 1640 ± 150 | 2830 ± 30 | 320 ± 50 | 940 ± 430 | induced cell cycle arrest in G2/M phase; also recorded: induced cell cycle arrest at G2/M | – | – | – | – | – | –
CN1CCCN(c2cccc(Nc3ncc(F)c(Nc4c(F)cccc4F)n3)c2)CC1 [3n, N ^4-(2,6-Difluorophenyl)-5-fluoro-N^2-(3-(4-methyl-1,4-diazepan-1-yl)phenyl) pyrimidine-2,4-diamine] | 4440 ± 420 | 710 ± 10 | 4770 ± 270 | 7160 ± 540 | 1600 ± 100 | 950 ± 270 | – | – | – | – | – | – | –
CN(C)CC(=O)Nc1cccc(Nc2ncc(F)c(Nc3ccc(Cl)cc3)n2)c1 [2c, N-(3-((4-((4-Chlorophenyl)amino)-5-fluoropyrimidin-2-yl)amino)phenyl)-2-(dimethylamino)acetamide] | 2030 ± 320 | 2120 ± 260 | 6770 ± 380 | 3940 ± 310 | 1100 ± 20 | 910 ± 110 | – | – | – | – | – | – | –
CC(=O)O[C@H]1C(=O)[C@@]2(C)[C@H]([C@H](OC(=O)c3ccccc3)[C@]3(O)C[C@H](OC(=O)[C@H](O)[C@@H](NC(=O)c4ccccc4)c4ccccc4)C(C)=C1C3(C)C)[C@]1(OC(C)=O)CO[C@@H]1C[C@@H]2O [Paclitaxel, reference compound] | – | 5.98 ± 0.4 | 7.76 ± 0.39 | 8.78 ± 0.79 | – | – | – | 4.94 ± 0.21 | 1518.36 ± 141.54 | – | – | – | –
CN(C)CC(=O)Nc1cccc(Nc2ncc(F)c(Nc3c(F)cccc3F)n2)c1 [2e, N-(3-((4-((2,6-Difluorophenyl)amino)-5-fluoropyrimidin-2-yl)amino)phenyl)-2-(dimethylamino)acetamide] | 4780 ± 380 | 1310 ± 70 | 3980 ± 160 | 4490 ± 30 | – | – | – | – | – | – | – | – | –
CN1CCN(c2cccc(Nc3ncc(F)c(Nc4c(F)cccc4F)n3)c2)CC1 [3m, N ^4-(2,6-Difluorophenyl)-5-fluoro-N^2-(3-(4-methylpiperazin-1-yl)phenyl) pyrimidine-2,4-diamine] | 400 ± 90 | 1250 ± 80 | 2840 ± 670 | 7760 ± 520 | 290 ± 2 | 470 ± 40 | – | – | – | – | – | – | –
Cc1ccc(Nc2ncc(F)c(Nc3c(F)cccc3F)n2)cc1NC(=O)CN(C)C [3j, N-(5-((4-((2,6-Difluorophenyl)amino)-5-fluoropyrimidin-2-yl)amino)-2-methylphenyl)-2-(dimethylamino)acetamide] | 600 ± 40 | 1150 ± 80 | 5310 ± 190 | 2370 ± 620 | – | – | – | – | – | – | – | – | –
CC(C)CC(=O)Nc1cccc(Nc2ncc(F)c(Nc3c(F)cccc3F)n2)c1 [3a, N-(3-((4-((2,6-Difluorophenyl)amino)-5-fluoropyrimidin-2-yl)amino)phenyl)-3-methylbutanamide] | 590 ± 50 | 720 ± 40 | > 10000 | 5970 ± 190 | 480 ± 220 | 1100 ± 150 | – | – | – | – | – | – | –
CN1CC[C@H](c2c(O)cc(O)c3c(=O)cc(-c4ccccc4Cl)oc23)[C@H](O)C1 [FVP, Flavopiridol] | – | – | – | – | – | – | – | – | – | 180 ± 10 | 140 ± 10 | 160 ± 10 | –
CN(C)CCNC(=O)c1cccc(Nc2ncc(F)c(Nc3c(F)cccc3F)n2)c1 [3e, 3-((4-((2,6-Difluorophenyl)amino)-5-fluoropyrimidin-2-yl)amino)-N-(2-(dimethylamino)ethyl)benzamide] | 3820 ± 110 | 720 ± 10 | 5420 ± 350 | 6730 ± 230 | 230 ± 10 | 750 ± 140 | – | – | – | – | – | – | –
CC(=O)c1ccc(Nc2nc(Nc3cccc(NC(=O)CN(C)C)c3)ncc2F)cc1 [2b, N-(3-((4-((4-Acetylphenyl)amino)-5-fluoropyrimidin-2-yl)amino)phenyl)-2-(dimethylamino)acetamide] | 2200 ± 370 | 2330 ± 30 | 5800 ± 80 | 3800 ± 240 | 390 ± 80 | 780 ± 40 | – | – | – | – | – | – | –
CN(C)CC(=O)Nc1cccc(Nc2ncc(F)c(Nc3c(Cl)cccc3Cl)n2)c1 [2f, N-(3-((4-((2,6-Dichlorophenyl)amino)-5-fluoropyrimidin-2-yl)amino)phenyl)-2-(dimethylamino)acetamide] | 7040 ± 80 | 3470 ± 440 | 13000 ± 380 | 6020 ± 510 | 570 ± 120 | 1600 ± 110 | – | – | – | – | – | – | –
CN(C)CC(=O)Nc1cccc(Nc2ncc([N+](=O)[O-])c(Nc3c(F)cccc3F)n2)c1 [2i, N-(3-((4-((2,6-Difluorophenyl)amino)-5-nitropyrimidin-2-yl)amino)phenyl)-2-(dimethylamino)acetamide] | 5730 ± 350 | 4900 ± 450 | 5940 ± 330 | 10230 ± 30 | 480 ± 80 | 780 ± 120 | – | – | – | – | – | – | –
CN(C)CC(=O)Nc1cccc(Nc2ncc(F)c(Nc3cc(F)cc(F)c3)n2)c1 [2g, N-(3-((4-((3,5-Difluorophenyl)amino)-5-fluoropyrimidin-2-yl)amino)phenyl)-2-(dimethylamino)acetamide] | 560 ± 80 | 710 ± 60 | 4640 ± 60 | 670 ± 30 | 490 ± 270 | 570 ± 50 | – | – | – | – | – | – | –
COc1ccc(Nc2nc(Nc3cccc(NC(=O)CN(C)C)c3)ncc2F)cc1 [2a, 2-(Dimethylamino)-N-(3-((5-fluoro-4-((4-methoxyphenyl)amino)pyrimidin-2-yl)amino)phenyl)acetamide] | 570 ± 10 | 720 ± 10 | 1200 ± 60 | 670 ± 60 | 300 ± 10 | 320 ± 280 | induced cell cycle arrest in G2/M phase; also recorded: induced cell cycle arrest at G2/M | – | – | – | – | – | –
CC(C)(C)NCC(=O)Nc1cccc(Nc2ncc(F)c(Nc3c(F)cccc3F)n2)c1 [3b, 2-(tert-Butylamino)-N-(3-((4-((2,6-difluorophenyl)amino)-5-fluoropyrimidin-2-yl)amino)phenyl)acetamide] | 3270 ± 130 | 1310 ± 180 | 2070 ± 120 | 2730 ± 480 | 80 ± 1 | 380 ± 60 | induced cell cycle arrest in G2/M phase; also recorded: induced cell cycle arrest at G2/M | – | – | – | – | – | –
CN(C)CCC(=O)Nc1cccc(Nc2ncc(F)c(Nc3c(F)cccc3F)n2)c1 [3c, N-(3-((4-((2,6-Difluorophenyl)amino)-5-fluoropyrimidin-2-yl)amino)phenyl)-3-(dimethylamino)propanamide] | 2310 ± 110 | 1200 ± 50 | 3240 ± 50 | 2650 ± 400 | 65 ± 23 | 300 ± 70 | – | – | – | – | – | – | –
Cc1ccc(Nc2ncc(F)c(Nc3c(F)cccc3F)n2)cc1N1CCOCC1 [3o, N ^4-(2,6-difluorophenyl)-5-fluoro-N^2-(4-methyl-3-morpholinophenyl)pyrimidine-2,4-diamine] | 980 ± 50 | 850 ± 10 | 7000 ± 60 | 3750 ± 280 | 740 ± 40 | 5600 ± 30 | – | – | – | – | – | – | 7.5
